According to patent US20040092561A1, “Azolidinone-vinyl fused -benzene derivatives” (priority 2002, published 2004):

Tests used:
[1] = target: PI3Kγ (Homo sapiens, UniProt P48736); assay: High Throughput PI3K Lipid Kinase Assay (Binding Assay), SPA with neomycin-coated beads; assay type: biochemical; conditions: Human recombinant GST-PI3Kγ; [33P]γ-ATP; 180 minutes, room temperature
Method: a) High Throughput PI3K Lipid Kinase Assay (Binding Assay)
The assay combines the scintillation proximity assay technology (SPA, Amersham) with the capacity of neomycin (a polycationic antibiotic) to bind phospholipids with high affinity and specificity. The Scintillation Proximity Assay is based on the properties of weakly emitting isotopes (such as ^3H, ^125I, ^33P). Coating SPA beads with neomycin allows the detection of phosphorylated lipid substrates after incubation with recombinant PI3K and radioactive ATP in the same well, by capturing the radioactive phospholipids to the SPA beads through their specific binding to neomycin.
To a 384 wells MTP containing 5 μl of a chemical compound library (containing 6% DMSO), the following assay components are added. 1) 5 μl (58 ng) of Human recombinant GST-PI3Kγ (in Hepes 40 mM, pH 7.4, DTT 1 mM and ethylenglycol 5%) 2) 10 μl of lipid micelles and 3) 10 μl of Kinase buffer ([^33P]γ-ATP 45 μM/60 nCi, MgCl2 30 mM, DTT 1 mM, P-Glycerophosphate 1 mM, NaVO4 100 μM, Na Cholate 0.3%, in Hepes 40 mM, pH 7.4). After incubation at room temperature for 180 minutes, with gentle agitation, the reaction is stopped by addition of 60 μl of a solution containing 100 μg of neomycin-coated PVT SPA beads in PBS containing ATP 10 mM and EDTA 5 mM. The assay is further incubated at room temperature for 60 minutes with gentle agitation to allow binding of phospholipids to neomycin-SPA beads. After precipitation of the neomycin-coated PVT SPA beads for 5 minutes at 1500×g, radioactive PtdIns(3)P is quantified by scintillation counting in a Wallac MicroBeta™ plate counter.
The values indicated in respect of PI3K γ refer to the IC50 (μM), i.e. the amount necessary to achieve 50% inhibition of said target. Said values show a considerable potency of the azolidinone-vinyl fused-benzene compounds with regard to PI3Kγ.

[2] = system: Akt/PKB phosphorylation in macrophages; assay: Cell Based ELISA to Monitor PI3K Inhibition: Akt/PKB phosphorylation in Raw 264-7 macrophages after stimulation with C5a; conditions: Mus musculus, RAW264.7, 50 nM C5a, 5 minutes, 20 minutes pretreatment, read-out: inhibition of C5a-mediated AKT-phosphorylation
Method: b) Cell Based ELISA to Monitor PI3K Inhibition
Measurement of Akt/PKB phosphorylation in macrophages after stimulation with C5a: Raw 264: Raw 264-7 macrophages (cultured in DMEM-F12 medium containing 10%
Fetal Calf serum and antibiotics) are plated at 20'000 cells/well in a 96 MTP 24 h before cell stimulation. Previous to the stimulation with 50 nM of Complement 5a during 5 minutes, Cells are serum starved for 2 h, and pretreated with inhibitors for 20 minutes. After stimulation cells are fixed in 4% formaldehyde for 20 minutes and washed 3 times in PBS containing 1% Triton X-100 (PBS/Triton). Endogenous peroxidase is blocked by a 20 minutes incubation in 0.6% H2O2 and 0.1% Sodium Azide in PBS/Triton and washed 3 times in PBS/Triton. Cells are then blocked by 60 minutes incubation with 10% fetal calf serum in PBS/Triton. Next, phosphorylated Akt/PKB is detected by an overnight incubation at 4° C. with first antibody (anti phospho Serine 473 Akt IHC, Cell Signaling) diluted 800-fold in PBS/Triton, containing 5% bovine serum albumin (BSA). After 3 washes in PBS/Triton, cells are incubated for 60 minutes with a peroxidase conjugated goat-anti-rabbit antibody ( 1/400 dilution in PBS/Triton, containing 5% BSA), washed 3 times in PBS/Triton, and 2 times in PBS and further incubated in 100 μl of substrate reagent solution (R&D) for 20 minutes. The reaction is stopped by addition of 50 μI of 1 M SO4H2 and absorbance is read at 450 nm.
The values indicated reflect the percentage of inhibition of AKT phoshorylation as compared to basal level. Said values show a clear effect of the azolidinone-vinyl fused-benzene compounds on the activation of AKT phosphorylation in macrophages.

Chain of PI3Kγ (P48736 whole entry): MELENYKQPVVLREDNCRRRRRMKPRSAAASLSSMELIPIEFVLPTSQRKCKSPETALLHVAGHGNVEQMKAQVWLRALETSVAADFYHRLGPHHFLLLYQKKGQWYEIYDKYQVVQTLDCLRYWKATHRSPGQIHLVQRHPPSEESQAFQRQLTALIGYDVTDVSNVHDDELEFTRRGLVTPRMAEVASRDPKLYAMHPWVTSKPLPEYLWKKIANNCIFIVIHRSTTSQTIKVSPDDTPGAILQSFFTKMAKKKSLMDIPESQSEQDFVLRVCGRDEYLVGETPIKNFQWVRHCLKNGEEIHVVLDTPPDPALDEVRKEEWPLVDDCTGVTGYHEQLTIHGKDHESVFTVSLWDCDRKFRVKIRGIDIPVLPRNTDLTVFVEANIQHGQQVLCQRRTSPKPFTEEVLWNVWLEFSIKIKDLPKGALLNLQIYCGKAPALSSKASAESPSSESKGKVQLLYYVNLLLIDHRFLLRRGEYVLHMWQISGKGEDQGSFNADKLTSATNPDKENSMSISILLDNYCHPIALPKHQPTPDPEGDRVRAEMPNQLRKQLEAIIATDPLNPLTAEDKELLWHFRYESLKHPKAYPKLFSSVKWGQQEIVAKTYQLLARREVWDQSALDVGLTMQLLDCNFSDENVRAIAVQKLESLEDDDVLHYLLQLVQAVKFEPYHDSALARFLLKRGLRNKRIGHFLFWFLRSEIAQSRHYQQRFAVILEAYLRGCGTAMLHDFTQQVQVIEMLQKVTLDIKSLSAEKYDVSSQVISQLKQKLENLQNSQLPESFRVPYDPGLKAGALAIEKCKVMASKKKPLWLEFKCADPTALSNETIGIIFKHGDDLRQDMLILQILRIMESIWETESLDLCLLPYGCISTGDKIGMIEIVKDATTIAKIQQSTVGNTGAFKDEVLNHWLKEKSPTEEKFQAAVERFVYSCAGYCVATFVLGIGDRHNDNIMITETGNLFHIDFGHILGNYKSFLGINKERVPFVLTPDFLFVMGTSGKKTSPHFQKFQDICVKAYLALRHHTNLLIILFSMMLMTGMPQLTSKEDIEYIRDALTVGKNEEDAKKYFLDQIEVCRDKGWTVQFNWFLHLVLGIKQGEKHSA

| IC50 [1] | SMILES | inhibition at 10 µM [2] |
| --- | --- | --- |
| 0.05 µM | O=C1NC(=O)/C(=C/c2ccc3c(c2)OCO3)S1 [Example 1, (5Z)-5-(1,3-benzodioxol-5-ylmethylene)-1,3-thiazolidine-2,4-dione] | 80% |
| 0.06 µM | O=C1NC(=S)S/C1=C/c1ccc2c(c1)OCO2 [Example 2, (5E)-5-(1,3-benzodioxol-5-ylmethylene)-2-thioxo-1,3-thiazolidin-4-one] | 80% |
|  | O=C1NC(=O)/C(=C/c2ccc3c(c2)CCO3)S1 [Example 4, (5Z)-5-(2,3-dihydro-1-benzofuran-5-ylmethylene)-1,3-thiazolidine-2,4-dione] | 80% |
| 0.03 µM | CN1C(=O)COc2ccc(/C=C3\SC(=O)NC3=O)cc21 [Example 10, (5Z)-5-[(4-methyl-3-oxo-3,4-dihydro-2H-1,4-benzoxazin-6-yl)methylene]-1,3-thiazolidine-2,4-dione] |  |
